The values below come from patent US20250082752A1, “COMPOUNDS, TARGETS, AND METHODS FOR MODULATING LYTIC GRANULE CONVERGENCE IN CYTOTOXIC CELLS TO PROMOTE BYSTANDER KILLING IN CELLULAR THERAPIES” (THE TRUSTEES OF COLUMBIA UNIVERSITY IN THE CITY OF NEW YORK, priority 2022, published 2025).

Holding throughout (format): cell-based
Assay [1] concerns YTS cells. The assay is described as follows: Number of MTOC (alpha-tubulin hyper densities) in YTS cells treated with PLK4 inhibitors. The settings on record: 5 days, Centrinone 5 nM or CFI400495 50 nM. As for the experimental part: (§1) Centrinone and CFI400495 are high affinity and selective PLK4 inhibitors that induce depletion of the centrosome and cell cycle arrest. YTS cells were treated for 5 days with Centrinone 5 nM or CFI400495 50 nM. […] For this experiment, 5×10^5 cells/ml YTS cells were incubated during 5 days Centrinone 5 nM or CFI400495 50 nM, every 24 hours the media were replaced with fresh media containing similar amounts of the drug. On day 5, cells were assessed by microscopy for gamma-tubulin or alpha-tubulin.

Assay [2] concerns YTS cells. The assay is described as follows: CD107a degranulation of treated YTS cells after conjugation with 721.221 target cells. The settings on record: 5 days, Centrinone 5 nM or CFI400495 50 nM. As for the experimental part: CD107a (also known as LAMP-1) is the standard to measure the process of degranulation. The more CD107a is expressed on the surface of the cell after stimulation, the more granules have been released. This is limited to the immunological synapse, in part secondary to the convergence process. CD107a upregulation is measured via flow cytometry after PMA/lonomycin activation and can be measured following target cell conjugation. […] The latter requires synapse formation and engagement of receptors for downstream activation signaling. Differences in results between these two approaches (target cell conjugation versus PMA/lonomycin) map the candidate's impact to early (synapse formation and signaling) or late (mechanics of) degranulation.
as §1

Assay [3] concerns YTS cells. The assay is described as follows: Confocal microscopy of granule dispersion in YTS cells after Centrinone or CFI400495. The settings on record: YTS cells after treatment with Centrinone or CFI400495. How it is done: as §1

`COc1ccc2c(c1)[C@]1(C[C@H]1c1ccc3c(/C=C/c4ccc(CN5C[C@@H](C)O[C@@H](C)C5)cc4)n[nH]c3c1)C(=O)N2.O=C(O)/C=C/C(=O)O` [CFI400495, Spiro[cyclopropane-1,3′-[3H]indol]-2′(1′H)-one, 2-[3-[(E)-2-[4-[[(2R,6S)-2,6-dimethyl-4-morpholinyl]methyl]phenyl]ethenyl]-1H-indazol-6-yl]-5′-methoxy-, (1R,2S)-, (2E)-2-butenedioate (1:1)]: in the assay with YTS cells [1], the “number of MTOC (alpha Tubulin hyper densities)” value is “increase number of mTOC”. Besides, the “degranulation (CD107a expression)” value in the assay on YTS cells [2] is on record as “increases degranulation”. Further, the “granule dispersion (confocal microscopy images)” value in the assay with YTS cells [3] was “more disperse granules”.
The matching figures for `COc1c(Nc2cc(C)[nH]n2)nc(Sc2ccc(S(=O)(=O)Cc3cccc([N+](=O)[O-])c3F)cc2F)nc1N1CCOCC1` [Centrinone, 2-[[2-Fluoro-4-[[(2-fluoro-3-nitrophenyl)methyl]sulfonyl]phenyl]thio]-5-methoxy-N-(5-methyl-1H-pyrazol-3-yl)-6-(4-morpholinyl)-4-pyrimidinamine]: “increase number of mTOC”, “increases degranulation” and “more disperse granules”.
